For 26 molecules, IC50 and Activity results are on record in ChEMBL document CHEMBL5137032, “Design, synthesis of DNA-interactive 4-thiazolidinone-based indolo-/pyrroloazepinone conjugates as potential cytotoxic and topoisomerase I inhibitors” (Eur J Med Chem, 2022).

Common to all, as to format: functional, cell-based
Assay [1] has as its system A549. Briefly: Cytotoxicity against human A549 cells assessed as cell growth inhibition incubated for 48 hrs by MTT assay. Particulars: A549, 48 h.
Another assay concerns HCT-116. Nature of the assay: Cytotoxicity against human HCT-116 cells assessed as cell growth inhibition incubated for 48 hrs by MTT assay. Conditions: HCT-116, 48 h.
Assay [2] has as its system SK-MEL-28. Nature of the assay: Cytotoxicity against human SK-MEL-28 cells assessed as cell growth inhibition incubated for 48 hrs by MTT assay. Particulars: SK-MEL-28, 48 h. A general note: Tetrazolium assays rely on reduction of a dye to a coloured formazan, in cell work by metabolically active cells.
In a further assay the test system is HT-29. Nature of the assay: Cytotoxicity against human HT-29 cells assessed as cell growth inhibition incubated for 48 hrs by MTT assay. Particulars: HT-29, 48 h.
The test system of a further assay is MCF7. Nature of the assay: Cytotoxicity against human MCF7 cells assessed as cell growth inhibition incubated for 48 hrs by MTT assay. Particulars: MCF7, 48 h.
Assay [3] concerns A549. Briefly: Induction of intracellular ROS generation in human A549 cells at […] incubated for 48 hrs by […] fluorescence microscopic analysis. Conditions: dose 0.47 µM.
Assay [4] deals with SK-MEL-28. Nature of the assay: Induction of intracellular ROS generation in human SK-MEL-28 cells at 2.26 uM incubated for 48 hrs by […] fluorescence microscopic analysis.

Active and inactive are the calls of the source. No cut-off for these calls is given here.

Broadly, the IC50 is the midpoint of a concentration-inhibition curve. In the case of `COc1ccc(CC/N=C2\NC(=O)/C(=C3\CCNC(=O)c4[nH]ccc43)S2)cc1`, the IC50 in the assay on A549 [1] amounted to 16 µM; in the assay with HCT-116, 10.8 µM; in the assay with SK-MEL-28 [2], 7.86 µM; in the assay with HT-29, 8.14 µM; in the assay on MCF7 it was 6.47 µM.
In the same order, the values of `O=C1N/C(=N\Cc2ccc(C(F)(F)F)cc2)S/C1=C1/CCNC(=O)c2[nH]ccc21` are over 100 µM, over 100 µM, over 100 µM, over 50 µM and over 100 µM.
The like results for `O=C1N/C(=N\Cc2cccc(Cl)c2)S/C1=C1/CCNC(=O)c2[nH]c3ccccc3c21` were, in that order, 33.7 µM, 25.2 µM, 23.8 µM, over 50 µM and 28.1 µM.
With `O=C1N/C(=N\CCc2ccc(F)cc2)S/C1=C1/CCNC(=O)c2[nH]c3ccccc3c21`, the IC50 with A549 [1], in the assay on HCT-116, in the assay on SK-MEL-28 [2], in the assay with HT-29 and with MCF7 was over 50 µM each time.
As for `O=C1N/C(=N\Cc2ccc(F)cc2)S/C1=C1/CCNC(=O)c2[nH]ccc21`, the IC50 in the assay with A549 [1] came out at 22.4 µM; with HCT-116, 16.9 µM; in the assay on SK-MEL-28 [2], 11.2 µM; in the assay on HT-29, 26 µM; in the assay on MCF7 it was 43.1 µM.
The like results for `O=C1N/C(=N\Cc2ccccc2)S/C1=C1/CCNC(=O)c2[nH]c3ccccc3c21` were, in that order, 48.2 µM, 34.4 µM, 29.8 µM, 31.8 µM and 31 µM.
`O=C1N/C(=N\Cc2ccccc2Cl)S/C1=C1/CCNC(=O)c2[nH]ccc21`: the IC50 is over 100 µM in the assay with A549 [1]; over 50 µM with HCT-116; over 100 µM in the assay on SK-MEL-28 [2]; over 100 µM in the assay on HT-29; 21.2 µM in the assay with MCF7.
On to `COc1ccc(C/N=C2\NC(=O)/C(=C3\CCNC(=O)c4[nH]c5ccccc5c43)S2)cc1OC`, for which the IC50 was 30 µM with A549 [1]; 16.4 µM in the assay on HCT-116; 25.1 µM in the assay on SK-MEL-28 [2]; over 50 µM in the assay with HT-29; 23.7 µM with MCF7.
For `O=C1N/C(=N\Cc2cccc(Cl)c2)S/C1=C1/CCNC(=O)c2[nH]ccc21`, the IC50 was 35.2 µM with A549 [1], 34.6 µM with SK-MEL-28 [2], 35.3 µM with HT-29 and 20.7 µM in the assay with MCF7.
On to `COc1cccc2c1C(=O)c1c(O)c3c(c(O)c1C2=O)C[C@@](O)(C(=O)CO)C[C@@H]3O[C@H]1C[C@H](N)[C@H](O)[C@H](C)O1` [DOXORUBICIN], for which the IC50 in the assay on HCT-116 is 7.41 µM; in the assay on SK-MEL-28 [2], 1.64 µM.
On to `CC(C)(C)c1ccc(C/N=C2\NC(=O)/C(=C3\CCNC(=O)c4[nH]ccc43)S2)cc1`, for which the IC50 in the assay on A549 [1] was 43.9 µM; in the assay on HCT-116, over 100 µM; in the assay on SK-MEL-28 [2] it was 23.5 µM; in the assay on HT-29, 43.4 µM; in the assay with MCF7 it was 18.9 µM.
With `COc1ccc(C/N=C2\NC(=O)/C(=C3\CCNC(=O)c4[nH]c5ccccc5c43)S2)cc1`, the IC50 turned out to be 3.73 µM with A549 [1]; 17.5 µM in the assay with HCT-116; 9.68 µM in the assay on SK-MEL-28 [2]; 12.3 µM in the assay with HT-29; 6.33 µM with MCF7.
In the same order, the values of `CC(C)(C)c1ccc(C/N=C2\NC(=O)/C(=C3\CCNC(=O)c4[nH]c5ccccc5c43)S2)cc1` are 19.3 µM, 15.9 µM, 8.97 µM, 13.6 µM and 9.01 µM.
Regarding `O=c1[nH]cc(F)c(=O)[nH]1` [FLUOROURACIL], the IC50 amounted to 14.6 µM with SK-MEL-28 [2], 23.9 µM in the assay on HT-29 and 21.1 µM in the assay on MCF7.
As for `COc1ccc(C/N=C2\NC(=O)/C(=C3\CCNC(=O)c4c3ccn4C)S2)cc1`, the IC50 in the assay on A549 [1] is over 100 µM; in the assay with HCT-116 it was over 100 µM; in the assay with SK-MEL-28 [2] it was over 100 µM; in the assay with HT-29, 32.4 µM; in the assay on MCF7, over 100 µM.
As to `O=C1N/C(=N\Cc2ccc(Cl)cc2)S/C1=C1/CCNC(=O)c2[nH]ccc21`, the IC50 in the assay with A549 [1], in the assay on HCT-116, with SK-MEL-28 [2], with HT-29 and with MCF7 was over 100 µM in each case.
Take `O=C1N/C(=N\CCc2ccccc2)S/C1=C1/CCNC(=O)c2[nH]ccc21`: the IC50 in the assay with A549 [1] was determined as 19.5 µM; in the assay with HCT-116 it was 17.8 µM; with SK-MEL-28 [2], 12.3 µM; in the assay on HT-29, 24.9 µM; in the assay with MCF7, 21 µM.
In the same order, the values of `O=C1N/C(=N\Cc2ccccc2)S/C1=C1/CCNC(=O)c2[nH]ccc21` are 26.9 µM, 49.7 µM, 38.4 µM, 36.5 µM and 31.1 µM.
Regarding `COc1ccc(C/N=C2\NC(=O)/C(=C3\CCNC(=O)c4[nH]ccc43)S2)cc1`, the IC50 with A549 [1] is 18.3 µM; in the assay with HCT-116, 19.4 µM; with SK-MEL-28 [2], 12.1 µM; with HT-29 it was 11.5 µM; in the assay with MCF7, 6.24 µM.
In the same order, the values of `O=C1N/C(=N\Cc2ccc3c(c2)OCO3)S/C1=C1/CCNC(=O)c2[nH]c3ccccc3c21` are over 50 µM, 21.4 µM, over 50 µM, 36.5 µM and 31.4 µM.
`O=C1N/C(=N\Cc2ccc(F)cc2)S/C1=C1/CCNC(=O)c2[nH]c3ccccc3c21`: the IC50 in the assay on A549 [1] is 36.5 µM; in the assay on HCT-116, 30.8 µM; in the assay on SK-MEL-28 [2], over 50 µM; with HT-29, 38 µM; in the assay with MCF7 it was 40.3 µM.
As for `CC[C@@]1(O)C(=O)OCc2c1cc1n(c2=O)Cc2cc3ccccc3nc2-1` [CAMPTOTHECIN], the values for the IC50 in the assay on A549 [1] and with SK-MEL-28 [2] were 0.47 µM and 2.26 µM, respectively. Besides, the outcome in the assay with A549 [3] and in the assay with SK-MEL-28 [4] was Active.
Regarding `O=C1N/C(=N\Cc2ccc(Cl)cc2)S/C1=C1/CCNC(=O)c2[nH]c3ccccc3c21`, the IC50 with A549 [1] is 33.6 µM; in the assay on HCT-116 it was 22.7 µM; in the assay with SK-MEL-28 [2], over 50 µM; in the assay with HT-29, 39.9 µM; with MCF7 it was 46.8 µM.
In the same order, the values of `Cn1c2c(c3ccccc31)/C(=C1\S/C(=N/Cc3ccccc3)NC1=O)CCNC2=O` are over 50 µM, over 50 µM, over 50 µM, over 50 µM and over 50 µM.
The like results for `COc1ccc(CC/N=C2\NC(=O)/C(=C3\CCNC(=O)c4[nH]c5ccccc5c43)S2)cc1` were, in that order, 20.5 µM, 18.6 µM, 3.49 µM, 15 µM and 9.41 µM.
In the same order, the values of `O=C1N/C(=N\Cc2ccc3c(c2)OCO3)S/C1=C1/CCNC(=O)c2[nH]ccc21` are 19.9 µM, 4.25 µM, 11.2 µM, 16.5 µM and 4.31 µM.
